Results: US20240262815A1, “HETEROARYL DERIVATIVE, METHOD FOR PREPARING SAME, AND PHARMACEUTICAL COMPOSITION COMPRISING SAME AS ACTIVE INGREDIENT” (VORONOI INC., priority 2021, published 2024)

How the values were obtained:
SK-BR-3 cancer cells = test: Inhibitory activity against proliferation of SK-BR-3 cancer cells (CellTiter-Glo); format: cell-based; conditions: Homo sapiens, SK-BR-3, 120 h, ErbB2-overexpressing SK-BR-3 cells, 120 hours after treatment
Procedure, shortened: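 Cells seeded 48 h before dosing (SK-BR-3 in McCOY'S 5A + 10% FBS; BT-474 in RPMI-1640 + 20% FBS), then exposed 120 h to 12 concentrations, 0.2 nM-5 μM final. Viability by CellTiter-Glo luminescence; GI50 from growth rate vs control, triplicate runs.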

BT-474 cancer cells = test: Inhibitory activity against proliferation of BT-474 cancer cells (CellTiter-Glo); format: cell-based; conditions: Homo sapiens, BT-474 ErbB2-overexpressing cancer cells, 120 hours after treatment
Method: To evaluate the inhibitory activity of a compound according to the present invention against the proliferation of ErbB2-overexpressing cancer cells, the following experiment were performed.
10% FBS-added McCOY'S 5A was used for SK-BR-3 cancer cells. 20% FBS-added RPMI-1640 was used for BT-474 cancer cells. Transduced Ba/F3 cells were cultured in a RPMI-1640 medium to which 1 μg/ml puromycin (Invitrogen) was added.
48 hours before compound treatment, each type of the SK-BR-3 and BT-474 cells were seeded at 5,000 cells/well in a white clear bottom 96 well plate (Corning). The compound was diluted in dimethyl sulfoxide (SK-BR-3: 3-fold dilution, a total of 12 concentrations, BT-474: […], a total of 12 concentrations) and injected at 1 μl to have the final concentration of 0.2 nM to 5 μM. As for measurement of live cells, 120 hours after treatment with the compound, a CellTiter-Glo luminescent cell-viability reagent (Promega) was used to store the cells at room temperature for 10 minutes, followed by measurement of luminescence using a reader (SynergyNeo, Biotek). Each test was repeated three times.
The result values were calculated as a cell growth rate (%) compared to the control group. A graph was plotted using the GraphPad Prism version 8.3.0 program, and GI50 values were calculated.

SMILES	GI50 (SK-BR-3 cancer cells) [nM]	GI50 (BT-474 cancer cells) [nM]
C=CC(=O)Nc1cc(Nc2cc(N3OCC[C@@H]3c3cc(F)cc(Oc4cccc(F)c4)c3)ncn2)c(OC)cc1N1CCN(C)[C@H](C)C1 [Example 221, N-(2-((R)-3,4-dimethylpiper-azin-1-yl)-5-((6-((R)-3-(3-fluoro-5-(3-fluorophen-oxy)phenyl)-isox-azolidin-2-yl)pyr-imidin-4-yl)-amino)-4-methoxy-phenyl)acrylamide]	< 50	< 50
C=CC(=O)Nc1cc(Nc2cc(N3OCC[C@@H]3c3cc(F)cc(Oc4cccc(F)c4)c3)ncn2)c(OC)cc1N1CCN(C)[C@@H](C)C1 [Example 223, N-(2-((S)-3,4-dimethylpiperazin-1-yl)-5-((6-((R)-3-(3-fluoro-5-(3-fluorophenoxy)-phenyl)isoxazol-idin-2-yl)pyrim-idin-4-yl)amino)-4-methoxyphen-yl)acrylamide]	< 50	< 50
C=CC(=O)Nc1cc(Nc2cc(N3OCC[C@@H]3c3cc(F)cc(Oc4cccc(F)c4)c3)ncn2)c(OC)cc1N1CCC(N(C)C)CC1 [Example 224, (R)-N-(2-(4-(dimethylamino)-piperidin-1-yl)-5-((6-(3-(3-fluoro-5-(3-fluorophenoxy)-phenyl)isoxazol-idin-2-yl)pyrim-idin-4-yl)amino)-4-methoxyphen-yl)acrylamide]	< 50	< 50
C=CC(=O)Nc1cc(Nc2cc(N3OCC[C@@H]3c3cccc(Oc4cc(F)cc(F)c4)c3)ncn2)c(OC)cc1N1CCN(C)CC1 [Example 225, (R)-N-(5-((6-(3-(3-(3,5-difluoro-phenoxy)phenyl)-isoxazolidin-2-yl)pyrimidin-4-yl)amino)-4-methoxy-2-(4-methylpiperazin-1-yl)phenyl)-acrylamide]	< 50	< 50
C=CC(=O)Nc1cc(Nc2cc(N3OCC[C@@H]3c3cccc(OCc4ccccc4)c3)ncn2)c(OC)cc1N(C)CCN(C)C [Example 227, (R)-N-(5-((6-(3-(3-(benzyloxy)-phenyl)isoxazol-idin-2-yl)pyrim-idin-4-yl)amino)-2-((2-(dimethyl-amino)ethyl)-(methyl)amino)-4-methoxyphen-yl)acrylamide]	< 50	< 50
C=CC(=O)Nc1cc(Nc2cc(N3OCC[C@@H]3c3cccc(OCc4cccc(F)c4)c3)ncn2)c(OC)cc1N(C)CCN(C)C [Example 228, (R)-N-(2-((2-(dimethylamino)-ethyl)(methyl)-amino)-5-((6-(3-(3-((3-fluorobenz-yl)oxy)phenyl)-isoxazolidin-2-yl)-pyrimidin-4-yl)-amino)-4-methoxy-phenyl)acrylamide]	< 50	< 50
C=CC(=O)Nc1cc(Nc2cc(N3OCC[C@@H]3c3cccc(-c4ccccc4)c3)ncn2)c(OC)cc1N1CCC(N2CCN(C3CC3)[C@@H](C)C2)CC1 [Example 231, N-(5-((6-((R)-3-([1,1′-biphenyl]-3-yl)isoxazolidin-2-yl)pyrimidin-4-yl)amino)-2-(4-((S)-4-cycloprop-yl-3-methylpiper-azin-1-yl)piperidin-1-yl)-4-methoxy-phenyl)acrylamide]	< 50	< 50
C=CC(=O)Nc1cc(Nc2cc(N3OCCC3c3cccc(-c4cnn(C)c4)c3)ncn2)c(OC)cc1N(C)CCN(C)C (stereo not shown) [Example 233, N-(2-((2-(dimeth-ylamino)ethyl)-(methyl)amino)-4-methoxy-5-((6-(3-(3-(1-methyl-1H-pyrazol-4-yl)phen-yl)isoxazolidin-2-yl)pyrimidin-4-yl)amino)phenyl)-acrylamide]	< 50	< 50
C=CC(=O)Nc1cc(Nc2cc(N3OCC[C@@H]3c3cccc(-c4cccc(F)c4)c3)ncn2)c(OC)cc1N1CCN(C)CC1 [Example 242, (R)-N-(5-((6-(3-(3′-fluoro-[1,1′-biphen-yl]-3-yl)isoxazol-idin-2-yl)pyrim-idin-4-yl)amino)-4-methoxy-2-(4-methylpiperazin-1-yl)phenyl)-acrylamide]	< 50	< 50
C=CC(=O)Nc1cc(Nc2cc(N3OCC[C@@H]3c3cccc(C(=O)NC(C)C)c3)ncn2)c(OC)cc1N1CCC(N2CCN(C3CC3)CC2)CC1 [Example 253, (R)-3-(2-(6-((5-acrylamido-4-(4-(4-cyclopropyl-piperazin-1-yl)-piperidin-1-yl)-2-methoxyphenyl)-amino)pyrimidin-4-yl)isoxazolidin-3-yl)-N-isopropyl-benzamide]	< 50	< 50
C=CC(=O)Nc1cc(Nc2cc(N3OCCC3c3cccc(-c4cc(F)cc(F)c4)c3)ncn2)c(OC)cc1N(C)CCN(C)C (stereo not shown) [Example 265, N-(5-((6-(3-(3′,5′-difluoro-[1,1′-biphenyl]-3-yl)-isoxazolidin-2-yl)-pyrimidin-4-yl)-amino)-2-((2-(dimethylamino)-ethyl)(methyl)-amino)-4-meth-oxyphenyl)acryl-amide]	< 50	< 50
C=CC(=O)Nc1cc(Nc2cc(N3OCC[C@@H]3c3cccc(-c4cc(F)cc(F)c4)c3)ncn2)c(OC)cc1N1CCC(N2CCN(C3CC3)[C@@H](C)C2)CC1 [Example 274, N-(2-(4-((S)-4-cyclopropyl-3-methylpiperazin-1-yl)piperidin-1-yl)-5-((6-((R)-3-(3′,5′-difluoro-[1,1′-biphenyl]-3-yl)isoxazolidin-2-yl)pyrimidin-4-yl)amino)-4-meth-oxyphenyl)acryl-amide]	< 50	< 50
C=CC(=O)Nc1cc(Nc2cc(N3OCC[C@@H]3c3cccc(-c4cc(F)cc(F)c4)c3)ncn2)c(OC)cc1N1CCN(C(C)=O)CC1 [Example 275, (R)-N-(2-(4-acetyl-piperazin-1-yl)-5-((6-(3-(3′,5′-difluoro-[1,1′-biphenyl]-3-yl)-isoxazolidin-2-yl)-pyrimidin-4-yl)-amino)-4-meth-oxyphenyl)acryl-amide]	< 50	< 50
C=CC(=O)Nc1cc(Nc2cc(N3OCC[C@@H]3c3cccc(-c4cc(F)cc(F)c4)c3)ncn2)c(OC)cc1N1CCN(C)CC1 [Example 276, (R)-N-(5-((6-(3-(3′,5′-difluoro-[1,1′-biphenyl]-3-yl)isoxazolidin-2-yl)pyrimidin-4-yl)-amino)-4-methoxy-2-(4-methylpiper-azin-1-yl)phenyl)-acrylamide]	< 50	< 50
C=CC(=O)Nc1cc(Nc2cc(N3OCC[C@@H]3c3cccc(-c4cc(F)cc(F)c4)c3)ncn2)c(OC)cc1N1CCN(CCC)CC1 [Example 278, (R)-N-(5-((6-(3-(3′,5′-difluoro-[1,1′-biphenyl]-3-yl)isoxazolidin-2-yl)pyrimidin-4-yl)-amino)-4-methoxy-2-(4-propylpiper-azin-1-yl)phenyl)-acrylamide]	< 50	< 50
C=CC(=O)Nc1cc(Nc2cc(N3OCC[C@@H]3c3cccc(-c4ccc(F)cc4F)c3)ncn2)c(OC)cc1N(C)CCN(C)C [Example 279, (R)-N-(5-((6-(3-(2′,4′-difluoro-[1,1′-biphenyl]-3-yl)isoxazolidin-2-yl)pyrimidin-4-yl)amino)-2-((2-(dimethylamino)-ethyl)(methyl)-amino)-4-methoxy-phenyl)acrylamide]	< 50	< 50
C=CC(=O)Nc1cc(Nc2cc(N3OCC[C@@H]3c3cccc(-c4cccc(C(F)(F)F)c4F)c3)ncn2)c(OC)cc1N(C)CCN(C)C [Example 280, (R)-N-(2-((2-(dimethylamino)-ethyl)(methyl)-amino)-5-((6-(3-(2′-fluoro-3′-(trifluoromethyl)-[1,1′-biphenyl]-3-yl)isoxazolidin-2-yl)pyrimidin-4-yl)-amino)-4-methoxy-phenyl)acrylamide]	< 50	< 50
C=CC(=O)Nc1cc(Nc2cc(N3OCC[C@@H]3c3cccc(-c4ccc(F)cc4F)c3)ncn2)c(OC)cc1N1CCN(C)CC1 [Example 281, (R)-N-(5-((6-(3-(2′,4′-difluoro-[1,1′-biphenyl]-3-yl)isoxazolidin-2-yl)pyrimidin-4-yl)-amino)-4-methoxy-2-(4-methylpiper-azin-1-yl)phenyl)-acrylamide]	< 50	< 50
C=CC(=O)Nc1cc(Nc2cc(N3OCC[C@@H]3c3cccc(-c4cccc(C(F)(F)F)c4F)c3)ncn2)c(OC)cc1N1CCN(C)CC1 [Example 282, (R)-N-(5-((6-(3-(2′-fluoro-3′-(tri-fluoromethyl)-[1,1′-biphenyl]-3-yl)isoxazolidin-2-yl)pyrimidin-4-yl)-amino)-4-methoxy-2-(4-methylpiper-azin-1-yl)phenyl)-acrylamide]	50 to 500	< 50
C=CC(=O)Nc1cc(Nc2cc(N3OCC[C@@H]3c3cccc(-c4cc(F)cc(C(F)(F)F)c4)c3)ncn2)c(OC)cc1N1CCN(C)CC1 [Example 283, (R)-N-(5-((6-(3-(3′-fluoro-5′-(trifluoromethyl)-[1,1′-biphenyl]-3-yl)isoxazolidin-2-yl)pyrimidin-4-yl)-amino)-4-methoxy-2-(4-methylpiper-azin-1-yl)phenyl)-acrylamide]	50 to 500	< 50
